The source of these data is ChEMBL document CHEMBL1201862, “PubChem BioAssay data set” (2004).

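Method: 48-hour compound exposure of cells in 96-well plates, five concentrations, linear interpolation of endpoints. GI50 marks 50% less growth.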 The source made the active and inactive calls. Rule as the data show it: active = GI50 up to about 1.1 µM and inactive = higher.

Test systems include T47D; SF-295; NCI-H460; UACC-62; SK-MEL-28; HCT-116; SF-539; HOP-62; M14; Hs-578T; CAKI-1; DU-145; MCF7; NCI-H23; UO-31; ACHN; COLO 205; SNB-75; HL-60; PC-3.
Experiment in all cases: NCI tumour cell line growth inhibition, 48 h

With `CC(=O)OC1CC(n2cc(F)c(=O)[nH]c2=O)OC1CO` (stereo not given), the GI50 in the assay with T47D was 12.1 µM (inactive); in the assay on SF-295, 0.209 µM (active); in the assay on NCI-H460 it was 0.0177 µM (active); in the assay with UACC-62, 0.42 µM (active); with SK-MEL-28 it was 15.6 µM (inactive); in the assay with HCT-116 it was 2.51 µM (inactive). In addition, the GI50 was 0.0418 µM (active) in the assay on SF-539; 0.152 µM (active) with HOP-62; 2.16 µM (inactive) in the assay with M14; 7.4 µM (inactive) with Hs-578T; 0.818 µM (active) in the assay on CAKI-1; 1.15 µM (inactive) in the assay with DU-145. For the same compound, the GI50 in the assay with MCF7 is 0.22 µM (active); in the assay on NCI-H23, 2 µM (inactive); in the assay on UO-31 it was 0.635 µM (active); with ACHN, 0.0585 µM (active); in the assay with COLO 205 it was 8.75 µM (inactive); in the assay with SNB-75, 3.98 µM (inactive). Moreover, the GI50 is 4.31 µM (inactive) with HL-60 and 16.9 µM (inactive) in the assay on PC-3.
Turning to `Cc1cc2c(cc1-c1cc3c(cc1C)C(C(C)C)=C(O)C(=O)/C3=C\Nc1c3ccccc3nc3ccccc13)/C(=C/Nc1c3ccccc3nc3ccccc13)C(=O)C(O)=C2C(C)C`, the GI50 in the assay on T47D is 6.17 µM (inactive); with SF-295, 2.31 µM (inactive); with NCI-H460, 2.09 µM (inactive); in the assay on UACC-62, 3.66 µM (inactive); with SK-MEL-28, 7.03 µM (inactive); with HCT-116, 6.25 µM (inactive). The GI50 was 3.86 µM (inactive) in the assay with SF-539; 4.26 µM (inactive) in the assay on HOP-62; 2.67 µM (inactive) in the assay on M14; 3.77 µM (inactive) in the assay on Hs-578T; 3.03 µM (inactive) in the assay on CAKI-1; 6.3 µM (inactive) in the assay on DU-145. Further, the GI50 with MCF7 is 3.17 µM (inactive); in the assay on NCI-H23, 3.66 µM (inactive); in the assay on UO-31 it was 3.03 µM (inactive); in the assay with ACHN it was 1.49 µM (inactive); with COLO 205, 1.99 µM (inactive); in the assay on SNB-75, 2.32 µM (inactive). The GI50 in the assay with HL-60 is 2.78 µM (inactive); with PC-3, 3.25 µM (inactive).
Consider `COP(=O)(OC)/C(=C/c1c[nH]c2ccccc12)C(=O)O`, for which the GI50 in the assay with T47D, with SF-295, in the assay with NCI-H460, in the assay on UACC-62, in the assay on SK-MEL-28 and with HCT-116 was > 100 µM (inactive) throughout. The GI50 with SF-539, in the assay on HOP-62, in the assay with M14, in the assay on Hs-578T, with CAKI-1 and with DU-145 was > 100 µM (inactive) throughout. In addition, the GI50 in the assay with MCF7, in the assay with NCI-H23, in the assay with UO-31, in the assay with ACHN, in the assay with COLO 205 and in the assay with SNB-75 was > 100 µM (inactive) in each case. Besides, the GI50 in the assay on HL-60 and with PC-3 was > 100 µM (inactive) each time.
With `CC(=O)Nc1ccc(C(O)/C(=N/N)c2nc3ccc(Cl)cc3nc2O)cc1` (stereo not given), the GI50 in the assay with T47D, with SF-295, with NCI-H460, in the assay on UACC-62, in the assay on SK-MEL-28 and in the assay on HCT-116 was > 100 µM (inactive) in each case. Also, the GI50 in the assay on SF-539, in the assay with HOP-62, in the assay with M14, with Hs-578T, in the assay with CAKI-1 and in the assay on DU-145 was > 100 µM (inactive) in each case. In addition, the GI50 in the assay with MCF7, in the assay on NCI-H23, in the assay with UO-31, in the assay on ACHN, with COLO 205 and with SNB-75 was > 100 µM (inactive) each time. Further, the GI50 in the assay on HL-60 and with PC-3 was > 100 µM (inactive) throughout.
Take `NC1=CN(CCCO)C2=N/C(=C\c3ccco3)C(=O)N12`: the GI50 with T47D, in the assay on SF-295, with NCI-H460, in the assay with UACC-62, in the assay with SK-MEL-28 and in the assay with HCT-116 was > 100 µM (inactive) each time. Further, the GI50 in the assay with SF-539, in the assay with HOP-62, in the assay with M14, with Hs-578T, in the assay with CAKI-1 and in the assay with DU-145 was > 100 µM (inactive) each time. The GI50 in the assay with MCF7 is > 100 µM (inactive); in the assay with NCI-H23, > 100 µM (inactive); with UO-31 it was 94 µM (inactive); in the assay with ACHN, > 100 µM (inactive); with COLO 205, > 100 µM (inactive); in the assay with SNB-75 it was > 100 µM (inactive). Further, the GI50 with HL-60 and in the assay on PC-3 was > 100 µM (inactive) throughout.
Take `CCOC(=O)c1ccc(-c2cccs2)[nH]1`: the GI50 was 31.6 µM (inactive) with T47D; > 100 µM (inactive) in the assay on SF-295; > 100 µM (inactive) with NCI-H460; 52.7 µM (inactive) in the assay with UACC-62; > 80.5 µM (inactive) in the assay on SK-MEL-28; 68.5 µM (inactive) in the assay with HCT-116. The GI50 in the assay with SF-539 is > 100 µM (inactive); in the assay on HOP-62, > 66.4 µM (inactive); with M14 it was 63.5 µM (inactive); in the assay on Hs-578T, 76.9 µM (inactive); in the assay on CAKI-1, > 92.5 µM (inactive); in the assay on DU-145 it was 49 µM (inactive). Further, the GI50 in the assay with MCF7 is 53.7 µM (inactive); in the assay on NCI-H23, 67.5 µM (inactive); with UO-31, 50 µM (inactive); with ACHN, 78.9 µM (inactive); with COLO 205, 60.7 µM (inactive); in the assay on SNB-75, > 100 µM (inactive). The GI50 with HL-60 was 38.8 µM (inactive); in the assay with PC-3, 72.6 µM (inactive).
Regarding `Nc1ncc(Cc2nc3ccccc3s2)s1`, the GI50 is 48.6 µM (inactive) in the assay on T47D; 40.9 µM (inactive) with SF-295; 73.6 µM (inactive) with NCI-H460; 54 µM (inactive) in the assay with UACC-62; > 100 µM (inactive) in the assay on SK-MEL-28; 52.1 µM (inactive) in the assay on HCT-116. Moreover, the GI50 in the assay on SF-539 is > 100 µM (inactive); in the assay with HOP-62 it was > 100 µM (inactive); in the assay with M14 it was 42.3 µM (inactive); in the assay with Hs-578T, 15.1 µM (inactive); with CAKI-1 it was 53.3 µM (inactive); in the assay on DU-145, > 100 µM (inactive). Besides, the GI50 was 35.6 µM (inactive) in the assay on MCF7; > 10 µM (inactive) with NCI-H23; 68.9 µM (inactive) in the assay on UO-31; 54.5 µM (inactive) with ACHN; 34.4 µM (inactive) in the assay on COLO 205; > 100 µM (inactive) with SNB-75. Also, the GI50 in the assay on HL-60 is > 100 µM (inactive); with PC-3 it was 63.5 µM (inactive).
In the case of `Cc1c2cccc-2c(OCCO)cc2c1[nH]c1ccccc12`, the GI50 with T47D is 3.24 µM (inactive); with SF-295, 3.26 µM (inactive); in the assay with NCI-H460, 3.61 µM (inactive); in the assay on UACC-62, 2.67 µM (inactive); in the assay on SK-MEL-28, 4.49 µM (inactive); with HCT-116, 3.01 µM (inactive). The GI50 with SF-539 was 1.74 µM (inactive); in the assay on HOP-62, 3.42 µM (inactive); in the assay on M14 it was 1.97 µM (inactive); in the assay on Hs-578T, 1.67 µM (inactive); in the assay on CAKI-1, 1.59 µM (inactive); in the assay on DU-145, 5.32 µM (inactive). Further, the GI50 in the assay with MCF7 is 2.69 µM (inactive); with NCI-H23 it was 2.54 µM (inactive); in the assay with UO-31 it was 1.5 µM (inactive); in the assay on ACHN it was 1.64 µM (inactive); in the assay with COLO 205 it was 1.87 µM (inactive); with SNB-75, 1.71 µM (inactive). Besides, the GI50 in the assay with HL-60 was 2.16 µM (inactive); with PC-3, 2.72 µM (inactive).
Consider `Cc1cc(C)c2c(c1)C1=NCCN1C2(O)c1ccc(Cl)cc1` (stereo not given), for which the GI50 with T47D is 16.4 µM (inactive); with SF-295, 15.7 µM (inactive); in the assay on NCI-H460, 14.9 µM (inactive); in the assay on UACC-62, 15.9 µM (inactive); in the assay with SK-MEL-28 it was 16.8 µM (inactive); in the assay on HCT-116, 13.3 µM (inactive). Also, the GI50 with SF-539 was 15.3 µM (inactive); in the assay on HOP-62, 15.2 µM (inactive); in the assay on M14, 14.5 µM (inactive); in the assay with Hs-578T, 16.4 µM (inactive); in the assay on CAKI-1, 15.1 µM (inactive); in the assay on DU-145 it was 19.5 µM (inactive). The GI50 was 18 µM (inactive) in the assay on MCF7; 17.8 µM (inactive) with NCI-H23; 13.9 µM (inactive) with UO-31; 16.1 µM (inactive) with ACHN; 15.1 µM (inactive) with COLO 205; 12.3 µM (inactive) with SNB-75. In addition, the GI50 with HL-60 was 19.9 µM (inactive); in the assay on PC-3, 16 µM (inactive).
`CCOC(=O)C1(Cc2ccccc2)Cc2cc3c(cc2C1)CCC3`: the GI50 in the assay on T47D was 26.7 µM (inactive); with SF-295 it was 29.4 µM (inactive); in the assay on NCI-H460 it was 31.3 µM (inactive); in the assay with UACC-62 it was 30.1 µM (inactive); in the assay on SK-MEL-28, 38.8 µM (inactive); in the assay with HCT-116, 24.3 µM (inactive). Further, the GI50 with SF-539 is 39 µM (inactive); in the assay with HOP-62 it was 37.2 µM (inactive); in the assay with M14, 29.5 µM (inactive); with Hs-578T, 22.3 µM (inactive); in the assay with CAKI-1, 39.5 µM (inactive); with DU-145, 44.6 µM (inactive). The GI50 with MCF7 is 23 µM (inactive); in the assay on NCI-H23 it was 27 µM (inactive); with UO-31, 40.9 µM (inactive); in the assay with ACHN, 38.7 µM (inactive); in the assay on COLO 205, 19.3 µM (inactive); in the assay on SNB-75, > 10 µM (inactive). The GI50 with HL-60 was 23.8 µM (inactive); with PC-3, 25.7 µM (inactive).
